1 compound from paper PMC4088097 (Scientific Reports, 2014) can be followed below.

The target in this experiment is T1, ribose binding protein RbsB (Escherichia coli, UniProt P02925).
T1 sequence (P02925 26-296): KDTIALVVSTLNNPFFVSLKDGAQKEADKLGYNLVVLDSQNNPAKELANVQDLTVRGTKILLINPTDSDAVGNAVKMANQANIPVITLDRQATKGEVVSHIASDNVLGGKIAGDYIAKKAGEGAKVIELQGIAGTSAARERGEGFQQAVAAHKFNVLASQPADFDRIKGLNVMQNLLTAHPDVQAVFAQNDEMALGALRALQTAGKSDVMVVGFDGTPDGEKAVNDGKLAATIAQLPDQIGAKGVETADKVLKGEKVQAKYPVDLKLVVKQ
Description: ITC with purified protein, […]°C, one-site fit.

Take `O=C[C@H](O)[C@H](O)[C@H](O)CO` [ribose]: the Kd was determined as 125 nM.
